# Measurements as given in PubChem BioAssay AID2060903 (Molecular Pharmacology Branch, DTP, NCI, 2025).
# System: 377384-186-R-J1-PDC complex spheroid viability
# Assay: Anticancer human tumor 377384-186-R-J1-PDC patient-derived pancreatic carcinoma cell line growth inhibition [RAS]
# Conditions: for IC50: curve of first compound; for viability, T/C: stronger effect = lower value
# Summary of the method: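 Tumour cells grown as complex spheroids with HUVEC endothelial cells and mesenchymal stem cells, treated with RAS pathway inhibitor combinations. Each agent spans half-log steps from near clinical Cmax, or 10 microM where Cmax is unknown.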
# [1] = second compound 0.00316 µM, first compound 0.000949 µM
# [2] = second compound 0.00316 µM, first compound 0.003 µM
# [3] = second compound 0.00316 µM, first compound 0.00949 µM
# [4] = second compound 0.00316 µM, first compound 0.03 µM
# [5] = second compound 0.00316 µM, first compound 0.0949 µM
# [6] = second compound 0.00316 µM, first compound 0.3 µM
# [7] = second compound 0.01 µM, first compound 0.000949 µM
# [8] = second compound 0.01 µM, first compound 0.003 µM
# [9] = second compound 0.01 µM, first compound 0.00949 µM
# [10] = second compound 0.01 µM, first compound 0.03 µM
# [11] = second compound 0.01 µM, first compound 0.0949 µM
# [12] = second compound 0.01 µM, first compound 0.3 µM
# [13] = second compound 0.0316 µM, first compound 0.000949 µM
# [14] = second compound 0.0316 µM, first compound 0.003 µM
# [15] = second compound 0.0316 µM, first compound 0.00949 µM
# [16] = second compound 0.0316 µM, first compound 0.03 µM
# [17] = second compound 0.0316 µM, first compound 0.0949 µM
# [18] = second compound 0.0316 µM, first compound 0.3 µM
# [19] = second compound 0.1 µM, first compound 0.000949 µM
# [20] = second compound 0.1 µM, first compound 0.003 µM
# [21] = second compound 0.1 µM, first compound 0.00949 µM
# [22] = second compound 0.1 µM, first compound 0.03 µM
# [23] = second compound 0.1 µM, first compound 0.0949 µM
# [24] = second compound 0.1 µM, first compound 0.3 µM
# [25] = second compound 0.316 µM, first compound 0.000949 µM
# [26] = second compound 0.316 µM, first compound 0.003 µM
# [27] = second compound 0.316 µM, first compound 0.00949 µM
# [28] = second compound 0.316 µM, first compound 0.03 µM
# [29] = second compound 0.316 µM, first compound 0.0949 µM
# [30] = second compound 0.316 µM, first compound 0.3 µM
# [31] = second compound 1 µM, first compound 0.000949 µM
# [32] = second compound 1 µM, first compound 0.003 µM
# [33] = second compound 1 µM, first compound 0.00949 µM
# [34] = second compound 1 µM, first compound 0.03 µM
# [35] = second compound 1 µM, first compound 0.0949 µM
# [36] = second compound 1 µM, first compound 0.3 µM
# 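Note: spheroids exposed to compounds for seven days before readout.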
structure (smiles),measurement,setting,value
CC(=O)OC12COC1CC(O)C1(C)C(=O)C(O)C3=C(C)C(OC(=O)C(O)C(NC(=O)OC(C)(C)C)c4ccccc4)CC(O)(C(OC(=O)c4ccccc4)C21)C3(C)C (stereo unspecified) + C=CC(=O)N1CCN(c2nc(OCC3CCCN3C)nc3c(F)c(-c4nc(N)cc(C)c4C(F)(F)F)c(Cl)cc23)C(C)C1,IC50,second compound 0.00316 µM,< 31.6 nM
same,IC50,second compound 0.01 µM,< 31.6 nM
same,IC50,second compound 0.0316 µM,< 31.6 nM
same,IC50,second compound 0.1 µM,< 31.6 nM
same,IC50,second compound 0.316 µM,< 31.6 nM
same,IC50,second compound 1 µM,< 31.6 nM
same,"viability, T/C","second compound 0.00316 µM, first compound 0.0316 µM",9.92%
same,"viability, T/C","second compound 0.00316 µM, first compound 0.1 µM",11.3%
same,"viability, T/C","second compound 0.00316 µM, first compound 0.316 µM",8.82%
same,"viability, T/C","second compound 0.00316 µM, first compound 1 µM",12.3%
same,"viability, T/C","second compound 0.00316 µM, first compound 3.16 µM",11.7%
same,"viability, T/C","second compound 0.00316 µM, first compound 10 µM",14.2%
same,"viability, T/C","second compound 0.01 µM, first compound 0.0316 µM",8.32%
same,"viability, T/C","second compound 0.01 µM, first compound 0.1 µM",8.59%
same,"viability, T/C","second compound 0.01 µM, first compound 0.316 µM",9.28%
same,"viability, T/C","second compound 0.01 µM, first compound 1 µM",10.8%
same,"viability, T/C","second compound 0.01 µM, first compound 3.16 µM",14.4%
same,"viability, T/C","second compound 0.01 µM, first compound 10 µM",11.4%
same,"viability, T/C","second compound 0.0316 µM, first compound 0.0316 µM",8.72%
same,"viability, T/C","second compound 0.0316 µM, first compound 0.1 µM",8.61%
same,"viability, T/C","second compound 0.0316 µM, first compound 0.316 µM",9.75%
same,"viability, T/C","second compound 0.0316 µM, first compound 1 µM",12.3%
same,"viability, T/C","second compound 0.0316 µM, first compound 3.16 µM",13.2%
same,"viability, T/C","second compound 0.0316 µM, first compound 10 µM",14%
same,"viability, T/C","second compound 0.1 µM, first compound 0.0316 µM",9.31%
same,"viability, T/C","second compound 0.1 µM, first compound 0.1 µM",9.36%
same,"viability, T/C","second compound 0.1 µM, first compound 0.316 µM",9.95%
same,"viability, T/C","second compound 0.1 µM, first compound 1 µM",12.9%
same,"viability, T/C","second compound 0.1 µM, first compound 3.16 µM",12.4%
same,"viability, T/C","second compound 0.1 µM, first compound 10 µM",9.63%
same,"viability, T/C","second compound 0.316 µM, first compound 0.0316 µM",9.62%
same,"viability, T/C","second compound 0.316 µM, first compound 0.1 µM",7.81%
same,"viability, T/C","second compound 0.316 µM, first compound 0.316 µM",8.61%
same,"viability, T/C","second compound 0.316 µM, first compound 1 µM",10.3%
same,"viability, T/C","second compound 0.316 µM, first compound 3.16 µM",13.6%
same,"viability, T/C","second compound 0.316 µM, first compound 10 µM",14.5%
same,"viability, T/C","second compound 1 µM, first compound 0.0316 µM",9.06%
same,"viability, T/C","second compound 1 µM, first compound 0.1 µM",11.8%
same,"viability, T/C","second compound 1 µM, first compound 0.316 µM",13.3%
same,"viability, T/C","second compound 1 µM, first compound 1 µM",12.9%
same,"viability, T/C","second compound 1 µM, first compound 3.16 µM",12.3%
same,"viability, T/C","second compound 1 µM, first compound 10 µM",14.5%
CC1(C)CCC(Nc2ncc(C(F)(F)F)c(-c3c[nH]c4c(P(C)(C)=O)c(C#N)ccc34)n2)CN1 (stereo unspecified) + C=CC(=O)N1CCN(c2nc(OCC3CCCN3C)nc3c(F)c(-c4nc(N)cc(C)c4C(F)(F)F)c(Cl)cc23)C(C)C1,IC50,second compound 0.00316 µM,2.98 nM
same,IC50,second compound 0.01 µM,4.06 nM
same,IC50,second compound 0.0316 µM,4.22 nM
same,IC50,second compound 0.1 µM,2.65 nM
same,IC50,second compound 0.316 µM,3.18 nM
same,IC50,second compound 1 µM,3.33 nM
same,"viability, T/C",[1],83.3%
same,"viability, T/C",[2],49.5%
same,"viability, T/C",[3],27.8%
same,"viability, T/C",[4],15.9%
same,"viability, T/C",[5],14.4%
same,"viability, T/C",[6],13.2%
same,"viability, T/C",[7],89%
same,"viability, T/C",[8],57.6%
same,"viability, T/C",[9],28.6%
same,"viability, T/C",[10],17%
same,"viability, T/C",[11],13.9%
same,"viability, T/C",[12],14.7%
same,"viability, T/C",[13],79.1%
same,"viability, T/C",[14],60.1%
same,"viability, T/C",[15],26%
same,"viability, T/C",[16],18.8%
same,"viability, T/C",[17],14.8%
same,"viability, T/C",[18],15%
same,"viability, T/C",[19],74.6%
same,"viability, T/C",[20],46.9%
same,"viability, T/C",[21],27.7%
same,"viability, T/C",[22],17.5%
same,"viability, T/C",[23],14.5%
same,"viability, T/C",[24],12.5%
same,"viability, T/C",[25],76.1%
same,"viability, T/C",[26],51.3%
same,"viability, T/C",[27],26.7%
same,"viability, T/C",[28],16.5%
same,"viability, T/C",[29],13.6%
same,"viability, T/C",[30],13.2%
same,"viability, T/C",[31],78.7%
same,"viability, T/C",[32],52.6%
same,"viability, T/C",[33],25%
same,"viability, T/C",[34],17.4%
same,"viability, T/C",[35],16%
same,"viability, T/C",[36],12.5%
CCc1c2c(nc3ccc(O)cc13)-c1cc3c(c(=O)n1C2)COC(=O)[C@]3(O)CC + C=CC(=O)N1CCN(c2nc(OCC3CCCN3C)nc3c(F)c(-c4nc(N)cc(C)c4C(F)(F)F)c(Cl)cc23)C(C)C1,IC50,second compound 0.00316 µM,1.55 nM
same,IC50,second compound 0.01 µM,1.4 nM
same,IC50,second compound 0.0316 µM,1.41 nM
same,IC50,second compound 0.1 µM,1.24 nM
same,IC50,second compound 0.316 µM,1.38 nM
same,IC50,second compound 1 µM,1.18 nM
same,"viability, T/C",[1],62.2%
same,"viability, T/C",[2],33.5%
same,"viability, T/C",[3],14.6%
same,"viability, T/C",[4],6.38%
same,"viability, T/C",[5],2.5%
same,"viability, T/C",[6],1.05%
same,"viability, T/C",[7],59%
same,"viability, T/C",[8],31.9%
same,"viability, T/C",[9],18.1%
same,"viability, T/C",[10],5.58%
same,"viability, T/C",[11],2.2%
same,"viability, T/C",[12],1.1%
same,"viability, T/C",[13],61%
same,"viability, T/C",[14],28.6%
same,"viability, T/C",[15],14%
same,"viability, T/C",[16],6.21%
same,"viability, T/C",[17],2.11%
same,"viability, T/C",[18],1.21%
same,"viability, T/C",[19],55.5%
same,"viability, T/C",[20],32.2%
same,"viability, T/C",[21],15.7%
same,"viability, T/C",[22],4.22%
same,"viability, T/C",[23],2.88%
same,"viability, T/C",[24],0.95%
same,"viability, T/C",[25],57.9%
same,"viability, T/C",[26],33.1%
same,"viability, T/C",[27],17.6%
same,"viability, T/C",[28],6.72%
same,"viability, T/C",[29],2.76%
same,"viability, T/C",[30],1%
same,"viability, T/C",[31],53.6%
same,"viability, T/C",[32],33.9%
same,"viability, T/C",[33],18.9%
same,"viability, T/C",[34],7.03%
same,"viability, T/C",[35],2.97%
same,"viability, T/C",[36],1.13%
